Where a SMILES comes first, the peptide text is derived from it. The star is where a group is joined. Cbz = O=C(OCc1ccccc1)*; CH2F = FC*
Key:
[1] = target: T1, caspase-3 (Rattus norvegicus, UniProt P55213); test: Caspase-3 activity assay with fluorogenic substrate Ac-DEVD-AFC in treated N27 cells; assay type: cell-based
T1 construct: N27 cells were exposed to either MPP^+ or 6-OHDA in the absence or presence of z-DIPD-fmk; endogenous in cells; host or cells: N27 rat mesencephalic dopaminergic neuronal cells
T1 sequence (P55213 29-175 limits assumed): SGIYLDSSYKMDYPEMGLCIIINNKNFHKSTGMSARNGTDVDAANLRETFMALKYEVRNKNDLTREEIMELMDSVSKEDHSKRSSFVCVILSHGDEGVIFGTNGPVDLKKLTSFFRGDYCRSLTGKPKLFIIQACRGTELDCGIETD
T1 sequence (P55213 176-277 limits assumed): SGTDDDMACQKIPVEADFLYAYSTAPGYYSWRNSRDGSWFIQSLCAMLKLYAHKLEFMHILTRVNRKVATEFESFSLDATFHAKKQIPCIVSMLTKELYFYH
Text: (§1) Chemicals. Protease cocktail, ATP, protein-A-sepharose, protein-G-sepharose and anti-â-actin antibody were obtained from Sigma-Aldrich (St. Louis, Mo.); mouse tyrosine hydroxylase antibody was purchased from Chemicon (Temecula, Calif.); the rabbit polyclonal antibody for tyrosine hydroxylase was obtained from Calbiochem Bioscience, Inc. (King of Prussia, Pa.); rabbit PKCδ antibody was purchased from Santa Cruz Biotechnology, Inc. (Santa Cruz, Calif.); anti-rabbit and anti-mouse secondary antibodies and the ECL chemiluminescence kit were purchased from Amersham Pharmacia Biotech. (Piscataway, N.J.). Alexa 488 conjugated antirabbit/mouse, Cy3 conjugated anti-rabbit/mouse antibody and Hoechst 33342 were purchased from Molecular Probes, Inc. (Eugene, Oreg.). [ã-32P]ATP was purchased from Perkin Elmer Life Science Products (Boston, Mass.). The Bradford protein assay kit was purchased from Bio-Rad Laboratories (Hercules, Calif.). RPMI, fetal bovine serum, -glutamine, penicillin, and streptomycin were purchased from Invitrogen (Gaithersburg, Md.). Quantity One 4.2.0 software was purchased from Bio-Rad. Design and synthesis of z-DIPD-fmk (SEQ ID NO:5). To develop a cell permeable peptide inhibitor to specifically block PKCδ cleavage, we designed the tetrapeptide Asp-Ile-Pro-Asp (DIPD) (SEQ ID NO:5) corresponding to position 324-327 in rat PKCδ cDNA representing the caspase-3 cleavage site. Since this peptide is directed against the caspase-3 cleavage site of PKCδ, it should prevent the proteolytic cleavage and activation of PKCδ mediated by caspase-3. The custom synthesis of the tetrapeptide Z-Asp(OMe)-Ile-Pro-Asp(OMe)-FMK (SEQ ID NO:5) was performed at MP Biomedicals (Irvine, Calif.), a quality company that specializes in developing cell permeable peptide inhibitors directed against apoptosis cell signaling molecules. Briefly, the synthesis was performed with the reaction of Boc-D(OMe)-OH with MBFM (Magnesium benzyl fluoromalonate) to produce Beta-Keto fluoroester, followed by hydrogenation with Pd/c to produce Boc-D(OMe)FK, which was converted into Tfa salt using trifluoroacetic acid. Coupling of Tfa salt with Z-D(OMe)—I—P—OH in DMF with HOBT, HBTU DIEA and workup produced a crude product which was purified by column chromatography over silica gel. Elution with EtOAC:MeOH 95:5 gave pure fractions which were mixed and dried. Crystallization with EtOAC/Hexane, filtration and drying produced the pure product. Animals. Time-pregnant C57/bL mice were housed under standard conditions: constant temperature (22±1° C.), humidity (relative, 30%) and a 12-h light/dark cycle with free access to food and water. The animals and protocol procedures were approved and supervised by the Committee on Animal Care (COAC) at Iowa State University. Cell culture. Rat mesencephalic dopaminergic neuronal (N27) cells were cultured as described earlier (Anantharam et al., 2002). Briefly, cells were grown in RPMI 1640 medium containing 10% fetal bovine serum, 2 mM L-glutamine, 50 units of penicillin, and 50 μg/ml streptomycin. Cells were maintained in a humidified atmosphere of 5% CO2 at 37° C. Primary mesencephalic neuronal cultures were prepared from the ventral mesencephalon of gestational 18-day-old mice embryos as described previously (Yang et al., 2004). Mesencephalic tissues were dissected and maintained in ice-cold Ca2+-free HBSS and then dissociated in HBSS solution containing trypsin-EDTA (0.25%) for 20 min at 37° C. […]

[2] = tested on: PKCδ; test: Immunoprecipitation kinase assay (histone H1 phosphorylation) in N27 cells; assay type: cell-based, rat; conditions: inhibitor 50 μM
Text: as §1, with “culture.” for “culture. Rat mesencephalic dopaminergic neuronal (N27) cells were cultured as described earlier (Anantharam et al., 2002). Briefly, cells were grown in RPMI 1640 medium containing 10% fetal bovine serum, 2 mM L-glutamine, 50 units of penicillin, and 50 μg/ml streptomycin. Cells were maintained in a humidified atmosphere of 5% CO2 at 37° C. Primary mesencephalic neuronal cultures were prepared from the ventral mesencephalon of gestational 18-day-old mice embryos as described previously (Yang et al., 2004). Mesencephalic tissues were dissected and maintained in ice-cold Ca2+-free HBSS and then dissociated in HBSS solution containing trypsin-EDTA (0.25%) for 20 min at 37° C.”

## CC[C@H](C)[C@H](NC(=O)[C@H](CC(=O)OC)NC(=O)OCc1ccccc1)C(=O)N1CCC[C@H]1C(=O)N[C@@H](CC(=O)OC)C(=O)CF [z-DIPD-fmk, Z-Asp(OMe)-Ile-Pro-Asp(OMe)-FMK] (Cbz-D(OMe)IPD(OMe)-CH2F)
[1]; 100 μM 6-OHDA 24 hr, inhibitor 50 μM
  effect on 6-OHDA-induced caspase-3 activation: completely blocked
[1]; 300 μM MPP+ 36 hr, inhibitor 50 μM
  effect on MPP+-induced caspase-3 activation: completely blocked
[1]; co-treatment, concentration not given
  effect on MPP+- and 6-OHDA-induced caspase-3 activation: dose-dependently attenuated
[2]; 100 μM 6-OHDA 24 hr
  effect on 6-OHDA-induced PKCδ kinase activity: almost completely suppressed
[2]; 300 μM MPP+ 36 hr
  effect on MPP+-induced PKCδ kinase activity: almost completely suppressed

Source: patent publication US7632819B1, “Methods and compositions for inhibiting PKC delta cleavage for treatment and prevention of neurodegeneration and apoptosis” (Iowa State University Research Foundation, Inc., priority 2004, dated 2009)
